Article PMC8047011, “Enantiomers of 2-methylglutamate and 2-methylglutamine selectively impact mouse brain metabolism and behavior” (Scientific Reports, 2021)
One block for each molecule: values may come before it.

How the values were obtained:
[1] = Metabolism in synaptosomes (GABA shunt, glutamate-glutamine cycle); assay type: in vitro ADME, mouse; conditions: mouse, mouse cerebral synaptosomes; synaptosomes preloaded with 100 μM substrate, 37 °C; estimated; read-out: Synaptosomal concentration half life
Procedure: (§1) To each tube, a 5 μL aliquot of a test compound solution (final concentration 100 μM) in Buffer KRP or Buffer KRP alone were added. The samples were incubated for 15 min at 37 °C, briefly chilled on ice, and then immediately centrifuged and washed twice by resuspension-centrifugation with Buffer S (0.5 mL). The pellets were then resuspended in Buffer KRP (500 μL). Samples were then immediately centrifuged or incubated for 5, 10, 15, 20, 25 or 30 min at 37 °C and then centrifuged and washed by resuspension-centrifugation with Buffer S (0.5 mL). Resulting pellets were resuspended in 170 μL of 0.1% aqueous formic acid, mixed with 330 μL of ACN. To each tube, 5 μL of 2MeGlu solution (final concentration 100 μM) in Buffer KRP or Buffer KRP alone were added. The samples were incubated for 15 min at 37 °C, briefly chilled on ice, and then immediately centrifuged and washed twice by resuspension-centrifugation with Buffer S (0.5 mL). The pellets were then resuspended in Buffer KRP (200 μL). Samples were then kept on ice or incubated for 10, 20, 30, 40 or 50 min at 37 °C and then chilled on ice. Then all samples were centrifuged, 200 μL of supernatants were collected, and the pellets were suspended in 200 μL of 80% ACN. Supernatants and pellet suspensions were diluted with 250 μL of ACN and 50 μL of 10 μM d[…] in water as internal standard.

[2] = test system: mouse cerebral synaptosomes; assay: as above; assay type: in vitro ADME; conditions: synaptosomes preloaded with 100 μM substrate
Procedure: as §1

[3] = biological target: human glutamine synthetase (Homo sapiens, UniProt P15104); set-up: method as in PMID 5320388; conditions: identical conditions with L-Glu; cited from earlier work
[4] = test system: mouse cerebral synaptosomes; assay: Synaptosomal neurotransmitter uptake assay; assay type: cell-based; conditions: 10 μM substrate, 37 °C
Procedure: Mouse cerebral synaptosomes were prepared according to published methods. See Supplementary Methods for details. 500 μL aliquots of the synaptosome suspension were transferred to pre-chilled microcentrifuge tubes for experiments. Centrifugations were at 8000g for 4 min at 4 °C, unless stated otherwise, and all samples were stored at − 80 °C.
To each tube, 5 μL of a test compound solution (final concentration 10 μM) in Buffer KRP or Buffer KRP alone were added. Samples were incubated at 4 °C or 37 °C for 1, 10, or 30 min and then immediately centrifuged and washed twice by resuspension–centrifugation with Buffer S (0.5 mL). Resulting pellets were resuspended in 170 μL of 0.1% aqueous formic acid and mixed with 330 μL of ACN.
Buffer S (4 mL, × 1) and Buffer KRP (2 mL, × 3). The resulting pellet was resuspended in 3 mL of Buffer KRP and filtered on Ultrafree-CL 5 μm PVDF centrifugal device (1,000g for 4 min at 4 °C). The filtrate was diluted to 15 mL with ice cold Buffer KRP and kept on ice. The synaptosome preparation was used immediately in the following experiments.
Synaptosomal neurotransmitter uptake assay
96-well plate experiments: 250 μL aliquots of the synaptosome suspension were transferred to two 0.8-mL 96 well plates, one on ice (0 °C samples only) and one in a thermoblock (37 °C samples only), and equilibrated for 10 min. 5 μL of a test compound (0.5 mM; final concentration: 10 μM) in Buffer KRP or Buffer KRP blank were added 10, 20 or 30 min before the incubation termination. “0 min” samples were prepared by placing the test compound solution in a separate pre-chilled V-shape bottom 2-mL 96 well plate; at the end of incubation 200 μL aliquots of all samples were transferred to the 2-mL 96 well plate and centrifuged (2,500g for 15 min at 4 °C) immediately. The resulting pellets were rinsed with Buffer KRP, followed by centrifugation, twice, then resuspended in 200 μL of 60% ACN containing 2.5 μM Glu-d5 as internal standard and stored at –80 °C until analysis. […]

[5] = test system: mouse cerebral synaptosomes; assay: Potassium-induced neurotransmitter release assay; assay type: cell-based; conditions: preincubated with 100 μM substrate 15 min 37 °C; high-potassium KRP buffer
Procedure: To each tube, 2.5 μL of a test compound solution (final concentration 100 μM) in Buffer KRP or Buffer KRP alone were added. Samples were incubated for 15 min at 37 °C, briefly chilled on ice, and then immediately centrifuged and washed twice with Buffer KRP. The resulting pellets were then resuspended in either Buffer KRP (500 μL) or Buffer K-KRP (500 μL). Samples were immediately centrifuged or incubated for 5, 10 or 15 min at 37 °C, then centrifuged and washed with Buffer KRP. Resulting pellets were resuspended in 400 μL of 60% ACN containing 2.5 μM Glu-d5 and 2.5 μM Gln-d5 as internal standards.

human glutaminase GLS1 = biological target: T1, human glutaminase GLS1 (Homo sapiens, UniProt O94925); assay: Catalysis of 2MeGln hydrolysis by GLS1 glutaminase; assay type: biochemical
T1 sequence (O94925 55-669): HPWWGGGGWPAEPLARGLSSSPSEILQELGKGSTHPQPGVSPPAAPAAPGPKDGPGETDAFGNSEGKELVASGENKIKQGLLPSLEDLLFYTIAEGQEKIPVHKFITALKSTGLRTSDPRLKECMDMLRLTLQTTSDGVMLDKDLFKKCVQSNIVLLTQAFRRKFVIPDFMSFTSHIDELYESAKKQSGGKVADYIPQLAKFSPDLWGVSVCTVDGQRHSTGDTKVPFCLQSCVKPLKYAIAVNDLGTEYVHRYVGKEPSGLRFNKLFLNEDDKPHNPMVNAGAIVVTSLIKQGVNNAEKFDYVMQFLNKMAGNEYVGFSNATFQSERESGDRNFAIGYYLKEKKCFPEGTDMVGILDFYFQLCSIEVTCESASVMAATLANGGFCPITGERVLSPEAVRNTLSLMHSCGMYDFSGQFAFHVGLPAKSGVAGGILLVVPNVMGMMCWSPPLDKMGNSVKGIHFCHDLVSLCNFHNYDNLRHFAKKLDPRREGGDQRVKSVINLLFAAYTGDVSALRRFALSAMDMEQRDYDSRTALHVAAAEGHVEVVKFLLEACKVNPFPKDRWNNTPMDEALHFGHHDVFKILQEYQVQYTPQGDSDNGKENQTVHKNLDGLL
Procedure: The procedure was adapted from an existing protocol. To a reaction mixture in a 1.5 mL microcentrifuge tube containing 10 mM rac-2MeGln or L-Gln-^13C2 in 100 mM phosphate pH 7.4 buffer made in 20% atom ^18O water, recombinant GLS1 (final concentration: 5 ng/mL) was added. The tubes were incubated in a preheated thermomixer at 37 °C and periodically shaken at 600 rpm (30 s on, 30 s off). 5 μL aliquots were collected in triplicate every 5 min and immediately diluted with 195 μL of cold 60% ACN containing 10 μM Glu-d5 and Gln-d5 as internal standards in a 96 well plate. After collecting all samples, the plate was shaken at 1000 rpm for 5 min at room temperature, and then stored at − 80 °C. Before analysis the plate was thawed and 10 μL aliquots of the extracted reaction mixtures were diluted with 190 μL of 90% acetonitrile.
The quantification of the newly formed 2MeGlu in the presence of the preexisting trace amounts was performed in the following way. Peak area ratio of Glu-^13C2 to Glu-^13C2^18O was calculated in all samples containing Glu-^13C2. The mean ratio value was then applied to calculate the hypothetical peak area of the newly formed 2MeGlu based on the directly measured 2MeGlu-^18O peak area. The ratio of the newly formed 2MeGlu peak area and the total 2MeGlu peak area was applied to calculate the concentration of the newly formed 2MeGlu from the total 2MeGlu concentration determined directly using the calibration curve.

[6] = test system: murine primary cerebral cortical neuron cultures; assay: Neuronal transport and metabolism of 2MeGln; assay type: cell-based, mouse; conditions: 1 mM substrate, 2 h, 37 °C; data not shown
Procedure: The procedure was adapted from an existing protocol. Wild-type (WT) C57BL/6J mating pairs were housed according to Stanford IACUC protocol. On day P0, pups were euthanized and brains dissected in cold HBSS (without Ca^2+ or Mg^2+). The forebrain was microdissected to isolate the cortex and hippocampus. These brain regions were minced in cold HBSS before trypsinization at 37 °C for 9 min, followed by trituration, through 2 glass polished Pasteur pipettes. The resulting cell suspension was passed through a 100 μm filter to isolate single cells which were sedimented at 250g for 5 min. The cell pellet was then resuspended in complete Neural Basal Media (Neural Basal Media + Glutamax + B-27 Plus Supplement + Pen/Strep) + 10%FBS, counted using a hemocytometer and plated at 1 × 10^6 cells per mL into a 24 well plate (1 mL per well) coated with poly-D-lysine and laminin. Cultures were grown at 37 °C/5% CO2 in a tissue culture incubator. Media was exchanged 50% on day 1 in vitro (1DIV) with fresh complete Neural Basal Media without FBS and thereafter every other day with the same media. On 3DIV the media was spiked with 2 μM AraC to limit glial growth. On 10DIV the media was completely replaced with 500 μL Neural Basal Media containing B-27 Plus Supplement + Pen/Strep without added Glutamax but instead containing 1 mM substrate at 37 °C for 2 h. […]

[7] = test system: primary murine cerebral astrocytes; assay: Astrocyte transport and metabolism of 2MeGlu; assay type: cell-based, mouse; conditions: 1 mM substrate, 2 h, 37 °C
Procedure: Primary astrocytes from C57Bl/6 mouse brain were cultured in complete astrocyte growth medium at 37 °C at 5% CO2 on 96 well plates. Cells were exposed to 1 mM compound in 100 μL medium for 2 h at 37 °C. Supernatants were collected, centrifuged at 2500g for 10 min at 4 °C. 10 μL aliquots were diluted with 190 μL 60% ACN containing 10 μM Glu-d5 and Gln-d5. Cells were quickly washed with 250 μL cold PBS twice and suspended in 200 μL of 60% ACN containing 10 μM Glu-d5 and Gln-d5. All samples were shaken at 1000 rpm for 5 min and then stored at – 80 °C.

Chain of human glutamine synthetase (P15104 whole entry): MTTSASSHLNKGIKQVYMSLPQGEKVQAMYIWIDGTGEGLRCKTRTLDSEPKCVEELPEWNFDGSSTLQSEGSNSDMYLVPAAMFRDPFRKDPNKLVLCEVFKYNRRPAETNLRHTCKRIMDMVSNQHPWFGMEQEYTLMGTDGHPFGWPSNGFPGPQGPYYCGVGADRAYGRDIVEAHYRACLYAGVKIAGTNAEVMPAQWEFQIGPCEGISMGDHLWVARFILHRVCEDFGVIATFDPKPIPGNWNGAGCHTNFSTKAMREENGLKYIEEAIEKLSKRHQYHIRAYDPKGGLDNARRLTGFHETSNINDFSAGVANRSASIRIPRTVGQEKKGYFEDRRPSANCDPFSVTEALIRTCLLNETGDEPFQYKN

SMILES: CC(N)(CCC(=O)O)C(=O)O (racemic) [rac-2MeGlu, 2-methylglutamate]
- half-life at 100 μM [1]: 21 min
- Metabolism along the GABA shunt in synaptosomes [2]: not associated with the concurrent appearance of 4APA or any other 2Me analogue within the GABA shunt
- Inorganic phosphate released with GS and ATP relative to L-Glu [3]: 50%

SMILES: CC(N)CCC(=O)O (racemic) [rac-4APA, 4-aminopentanoic acid]
- Transport into synaptosomes [4]: transported into synaptosomes
- Potassium-induced release from preloaded synaptosomes [5]: exhibited high potassium concentration-dependent release

SMILES: C[C@](N)(CCC(N)=O)C(=O)O [(S)-2MeGln, (S)-2-methylglutamine]
- Substrate for GLS1 (human glutaminase GLS1): substrates of GS and GLS1, respectively

SMILES: N[C@@H](CCC(=O)O)C(=O)O [L-[1,2-^13C]Glu, reference compound]
- Extracellular concentration of amide product (2MeGln or [1,2-13C]Gln), astrocyte cultures [7]: 5.0 nmol/well
- Intracellular concentration of amide product (2MeGln or [1,2-13C]Gln) in astrocytes [7]: 0.26 nmol/well

The remaining lines, values ahead:

- Apparent reaction rate of GLS1 hydrolysis (human glutaminase GLS1; 10 mM substrate, 5 ng/mL enzyme, phosphate pH 7.4): 65 µM/min
SMILES: NC(=O)CC[C@H](N)C(=O)O [Gln, L-glutamine, reference compound]

- Intracellular [1,2-13C]Gln relative to 2MeGln in neurons [6]: twofold lower
- Intracellular [1,2-13C]Glu relative to 2MeGlu in neurons [6]: over fivefold lower
SMILES: NC(=O)CC[13C@H](N)[13C](=O)O [L-[1,2-^13C]Gln]
